Results reported in patent publication US10519177B2, “Heterocyclic compounds and uses thereof” (Plexxikon Inc., priority 2013, dated 2019).
pIC50: −log10 of the molar value. Where two headings read alike, the source gives them in different places.

Legend:
MV-4-11 cells = test: Oncology cell growth assay MV-4-11 (CellTiter Glo); assay type: cell-based
Text: Published bromodomain inhibitors JQ1 and iBET 151 have shown activity in variety of cancer cells such leukemia and lymphoma, multiple myeloma cells, NUT midline carcinoma and glioblastoma cells (Dawson M A et al. 2011; Delmore J E 2011; Chen Z et al. 2013; Filippakopoulos P et al. 2010; Mertz J A et al. 2011; Ott C J et al. 2012). In this study, we test compounds in different cancer cell lines. MV-4-11 and MOLM-13 are AML cell lines harboring a MLL-AF4 and MLL-AF9 translocation, respectively. MM.1S is a multiple myeloma cell line. SK-N-AS, IMR-32 and SK-N-BE(2) are neuroblastoma cell lines. IMR-32 and SK-N-BE(2) cell lines harbor MYCN amplifications.
MV-4-11, MM.1S, IMR-32, SK-N-AS and SK-N-BE(2) were obtained from ATCC (IL, USA) and MOLM-13 were purchased from DSMZ (Braunschweig, German). Cells are cultured as recommended by their sources. For growth inhibition studies 3000 cells are seeded in wells of a 96-well plate in 75 μL of culture media. After several hours, growth media containing compounds of formula (I) are added to the wells. Compound at a maximal concentration of 5 mM was serially diluted 1:3 for a total of 8 point titration with DMSO as a control. A 1 μL aliquot of each dilution point is added to 249 μL growth media and 75 μL is added to each well containing cells, providing 10 μM compound at the maximum concentration point. The final concentration of DMSO in all wells is 0.2%. Cells are incubated for 72 hours, and 25 μL of CellTiter Glo Reagent (Promega GA, USA) is added to each well. Plates are shaken for approximately 10 minutes and chemiluminescent signal is read on Tecan microplate reader. The measured luminescence correlates directly with cell number.
All data is normalized to the mean of eight DMSO high control wells on each plate. A four parameter curve fit of the following formula was then applied: Y=a+(b−a)/(1+(x/c)^d) Where ‘a’ is the minimum, ‘b’ is the maximum, ‘c’ is the pIC50 and ‘d’ is the Hill slope. […] Myc Reporter Assay

BRD4-BD12 (1-477) = BRD4-BD12 (1-477) (Homo sapiens (Human), UniProt O60885); test: Alphascreen binding assay BRD4-BD12; settings: BRD4(1 2) H4; read-out: Biochemical activity (IC50 μM) BRD4(1 2) H4
Procedure: Binding of compounds of formula (I) with bromodomain 2, 3 4 was assessed using Alphascreen binding assay. The inhibition of the interaction between bromodomain and its acetylated target protein (Filippakopoulos P et al. 2012) was measured quantitatively using recombinant BRD proteins, an acetylated Histone 4 peptide and AlphaScreen™ technology. In absence of inhibition the BRD protein bound to AlphaScreen™ nickel chelate acceptor beads can interact with the acetylated Histone 4 peptide which is immobilized by the AlphaScreen™ Streptavidin coated beads. This interaction brings donor and acceptor beads in proximity. The close proximity allows the singlet oxygen produced by laser excitation of the donor beads to reach the acceptor beads and generate a luminescence signal.
Recombinant human bromodomains containing the N-terminal bromodomain (BRD2-BD1 (71-194), BRD3-BD1 (24-144) and BRD4-BD1 (44-164)) or dual bromodomains (BRD4-BD12 (1-477), BRD4-BD12 (1-472)) were prepared and purified as described in protein expression and purification session. The peptide is human Histone H41-21K5AcK8AcK12AcK16Ac-Biotin (Anaspec CA, USA).
Protocol for BRD2, BRD3 and BRD4 assay: All components are prepared in buffer composed of 50 mM HEPES pH 7.5, 100 mM NaCl, 0.01% bovine serum albumin (“BSA”), 0.01% Triton X-100, 2 mM dithiothreitol (“DTT”). 7 μL of Bromodomain protein and 7 μL of peptide are added to wells containing 1 μL of various concentrations of test compounds of formula (I) or DMSO vehicle in an Alphaplate (PerkinElmer GA, USA) and incubated for 1 hour at room temperature. 4 μL donor and acceptor bead mixture is then added with final concentrations of 7.5 μg/ml. 30 minutes after bead addition, Alpha signal is read on the Envision spectrometer (λEx 680 nm, λEm 520-620 nm). Final concentrations of bromodomain proteins and peptide are as shown below.
All data was normalized to the mean of 16 high and 16 low control wells on each plate. A four parameter curve fit of the following formula was then applied: Y=a+(b−a)/(1+(x/c)^d) Where ‘a’ is the minimum, ‘b’ is the maximum, ‘c’ is the pIC50 and ‘d’ is the Hill slope. Protein Expression and Purification
Recombinant human bromodomains containing the N-terminal bromodomain (BRD2-BD1 (71-194), BRD3-BD1 (24-144) and BRD4-BD1 (44-164)) or dual bromodomains (BRD4-BD12 (1-477), BRD4-BD12 (1-472)) were expressed in E. coli cells (in a modified pET vector) with an N-terminal six-His tag and purified using a combination of both IMAC (Ni-affinity) and size exclusion chromatography steps.
Recombinant BRD proteins were expressed using the E. coli strain BL21-CodonPlus (DE3) (Agilent Technologies CA, USA). Cells were grown in Terrific Broth (TB) media to an OD600 of 1.2 at 37° C. at which temperature was reduced to 25° C., protein was induced with 1.0 mM ispropyl-β-D-thiogalactopyranoside (“IPTG”) for 12-18 hours and harvested by centrifugation at 8000×g for 20 minutes. Cells were re-suspended in 0.1M K2PO4 pH 8.0, 250 mM NaCl, 10% Glycerol, 0.75% NP-40, 25 mM Imidazole, 5 mM beta-mercaptoethanol (“BME”) with 0.2 mg/ml Lysosyme, 2.0 mM phenylmethanesulfonyl fluoride (“PMSF”), 25 μg/ml DNAse I, incubated on ice for 30 minutes and lyzed with a cell disruptor (MicroFluidics MA, USA). The lysate was clarified by centrifugation at 20,000×g for 2 hours. The protein was captured with Ni-NTA resin (Life Technologies, USA). Contaminating proteins were washed off with 25 mM Tris-HCl pH 8.3, 250 mM NaCl, 12% Glycerol and 50 mM Imidazole. Following 3× wash steps, protein was eluted step wise using a 50 mM HEPES pH 7.5, 500 mM NaCl and 400 mM Imidazole. The protein was further purified using Gel Filtration column 26/600 Superdex 200 (GE Biosciences NJ, USA) in 50 mM HEPES pH 7.5, 250 mM NaCl. The protein was aliquoted and flash-frozen in liquid Nitrogen.

bromodomain = test: at least one of the bromodomain cell assays of Example 57; assay type: cell-based; settings: read-out: IC50 in at least one of the bromodomain cell assays
[1] = Homo sapiens, MV4-11, 72 h; MV-4-11, 3d growth; read-out: Cell activity (IC50 μM) MV-4-11 3d-Growth
[2] = Homo sapiens, MV4-11, 72 h; read-out: Cell activity (IC50 μM) MV-4-11 3d-Growth
[3] = at least one of the bromodomain cell assays described in Example 57

Row | SMILES | IC50 (MV-4-11 cells; [1]) [µM] | IC50 (BRD4-BD12 (1-477)) [µM] | other results
1 | Cc1noc(C)c1-c1cnc2c(I)cn(C(c3ccccc3)c3ccccn3)c2c1 (stereo not drawn) [P-0906, 4-[3-iodo-1-[phenyl(2-pyridyl)methyl]pyrrolo[3,2-b]pyridin-6-yl]-3,5-dimethyl-isoxazole] | < 1 | < 1 | –
2 | Cc1noc(C)c1-c1cnc2c(-c3ccccc3C(=O)O)cn(CC3CCC(F)(F)CC3)c2c1 [P-0398, 2-[1-[(4,4-difluorocyclohexyl)methyl]-6-(3,5-dimethylisoxazol-4-yl)pyrrolo[3,2-b]pyridin-3-yl]benzoic acid] | – | < 1 | IC50 (MV-4-11 cells; [2]): < 1 µM
3 | Cc1noc(C)c1-c1ccc2c(I)cn(C(c3ccccc3)c3ccccn3)c2c1 (stereo not drawn) [P-0991, 4-[3-iodo-1-[phenyl(2-pyridyl)methyl]indol-6-yl]-3,5-dimethyl-isoxazole] | < 1 | < 1 | –
4 | COC(=O)C1(c2ccc(-c3cn(Cc4ccccn4)c4cc(-c5c(C)noc5C)cnc34)cc2)CC1 [P-0952, methyl 1-[4-[6-(3,5-dimethylisoxazol-4-yl)-1-(2-pyridylmethyl)pyrrolo[3,2-b]pyridin-3-yl]phenyl]cyclopropanecarboxylate] | < 1 | < 1 | –
5 | [2H]C([2H])([2H])c1noc(C([2H])([2H])[2H])c1-c1cnc2c(-c3ccc(C(=O)O)cc3)cn(CC3CCC(F)(F)CC3)c2c1 [P-0908, 4-[6-[3,5-bis(trideuteriomethyl)isoxazol-4-yl]-1-[(4,4-difluorocyclohexyl)methyl]pyrrolo [3,2-b]pyridin-3-yl]benzoic acid] | < 1 | < 1 | –
6 | COC(=O)c1ccc(-c2cn(CC3CCCCC3)c3cc(-c4c(C)noc4C)cnc23)cc1OC [P-0904, methyl 4-[1-(cyclohexylmethyl)-6-(3,5-dimethylisoxazol-4-yl)pyrrolo[3,2-b]pyridin-3-yl]-2-methoxy-benzoate] | < 1 | < 1 | –
7 | Cc1noc(C)c1-c1cnc2c(-c3ccc(C#N)nc3)cn(C(c3ccccc3)c3ccccn3)c2c1 (stereo not drawn) [P-0907, 5-[6-(3,5-dimethylisoxazol-4-yl)-1-[phenyl(2-pyridyl)methyl]pyrrolo[3,2-b]pyridin-3-yl]pyridine-2-carbonitrile] | < 1 | < 1 | –
8 | Cc1noc(C)c1-c1ccc2c(-c3cnn(C)c3)cn(C(c3ccccc3)c3ccccn3)c2c1 (stereo not drawn) [P-1040, 3,5-dimethyl-4-[3-(1-methylpyrazol-4-yl)-1-[phenyl(2-pyridyl)methyl]indol-6-yl]isoxazole] | < 1 | < 1 | –
9 | CNC(=O)c1ccc(-c2cn(CC3(F)CCC(F)(F)CC3)c3cc(-c4c(C)noc4C)cnc23)cn1 [P-0380, 5-[6-(3,5-dimethylisoxazol-4-yl)-1-[(1,4,4-trifluorocyclohexyl)methyl]pyrrolo[3,2-b]pyridin-3-yl]-N-methyl-pyridine-2-carboxamide] | – | < 1 | IC50 (MV-4-11 cells; [2]): < 1 µM
10 | Cc1noc(C)c1-c1ccc2c(-c3ccc(C(=O)O)c(Cl)c3)cn(C(c3ccccc3)c3ccccn3)c2c1 (stereo not drawn) [P-1047, 2-chloro-4-[6-(3,5-dimethylisoxazol-4-yl)-1-[phenyl(2-pyridyl)methyl]indol-3-yl]benzoic acid] | < 1 | < 1 | –
11 | COC(=O)c1ccc(-c2cn(Cc3ccncc3)c3cc(-c4c(C)noc4C)cnc23)cc1 [P-0936, methyl 4-[6-(3,5-dimethylisoxazol-4-yl)-1-(4-pyridylmethyl)pyrrolo[3,2-b]pyridin-3-yl]benzoate] | < 1 | < 1 | –
12 | [2H]c1c([2H])c([2H])c(C([2H])(n2cc(-c3ccc(C(=O)O)cc3)c3ncc(-c4c(C)noc4C)cc32)C([2H])([2H])[2H])c([2H])c1[2H] (stereo not drawn) [P-0607, 4-[6-(3,5-dimethylisoxazol-4-yl)-1-[1,2,2,2-tetradeuterio-1-(2,3,4,5,6-pentadeuteriophenyl)ethyl]pyrrolo[3,2-b]pyridin-3-yl]benzoic acid] | < 1 | – | pIC50 (bromodomain; [3]): > 5.00
13 | Cc1noc(C)c1-c1cnc2c(-c3ccc(C(F)F)cc3)cn(CC3CCC(F)(F)CC3)c2c1 [P-0608, 4-[1-[(4,4-difluorocyclohexyl)methyl]-3-[4-(difluoromethyl)phenyl]pyrrolo[3,2-b]pyridin-6-yl]-3,5-dimethyl-isoxazole] | < 1 | – | pIC50 (bromodomain; [3]): > 5.00
14 | Cc1noc(C)c1-c1cnc2c(-c3ccc(C(=O)O)cc3)cn([C@@H](C)c3ccccn3)c2c1 [P-0511, 4-[6-(3,5-dimethylisoxazol-4-yl)-1-[(1S)-1-(2-pyridyl)ethyl]pyrrolo[3,2-b]pyridin-3-yl]benzoic acid] | – | – | IC50 (MV-4-11 cells; Homo sapiens, MV4-11, 72 h, read-out: Cell activity (IC50 μM) MV-4-11 3d-Growth): < 1 µM; pIC50 (bromodomain): > 5.00
15 | CNC(=O)c1ccc(-c2cnc3ccn(CC4CCC(F)(F)CC4)c3c2)cn1 [P-0359, 5-[1-[(4,4-difluorocyclohexyl)methyl]pyrrolo[3,2-b]pyridin-6-yl]-N-methyl-pyridine-2-carboxamide] | – | – | IC50 (MV-4-11 cells; [2]): 10 to 200 µM; pIC50 (bromodomain; [3]): > 5.00
16 | Cc1noc(C)c1-c1cnc2c(-c3cnn(C)c3)cn(C(=O)C3CCC(F)(F)CC3)c2c1 [P-0208] | – | – | IC50 (MV-4-11 cells; MV-4-11 3d-Growth; read-out: Cell activity (IC50 μM) MV-4-11 3d-Growth): 1 to 10 µM; pIC50 (bromodomain; [3]): > 5.00
17 | COC(=O)c1ccc(-c2cn(Cc3ccccn3)c3cc(-c4c(C)noc4C)cnc23)cc1OC [P-0954, methyl 4-[6-(3,5-dimethylisoxazol-4-yl)-1-(2-pyridylmethyl)pyrrolo[3,2-b]pyridin-3-yl]-2-methoxy-benzoate] | – | < 1 | –
